The text below walks through data of patent US20260028332A1, “POLYMORPHIC FORM OF GLP-1R AGONIST, PREPARATION METHOD THEREFOR AND USE THEREOF” (MINDRANK THERAPEUTICS (SUZHOU) NEW DRUG RESEARCH AND …, priority 2022, published 2026).

Holding throughout (format): physicochemical
A short description of data set [1]: Solid state stability study of polymorph (purity by HPLC and crystal form change after 7 days storage). As to conditions: for purity change, long-term storage condition: 25° C./60% RH; for purity change, long-term storage condition / purity change, accelerated condition / purity change, high-temperature condition: 7 days; for purity change, high-temperature condition: 60° C., RH<30%; for crystal form change after storage: 7 days in long-term storage, accelerated and high-temperature conditions; for overall solid state stability: 7 days storage study, conclusion. As to the method:
Crystal form 2A of compound II was preserved in long-term storage (25° C./60% RH), accelerated (40° C./75% RH), and high-temperature (60° C., RH<30%) conditions for 7 days, and tested for purity and crystal form change by HPLC, so as to examine the stability of the solids.

Data set [2] can be described thus: Hygroscopic behavior test by dynamic vapor sorption (DVS). As to conditions: for solid form change after DVS / hygroscopicity / Sample weight change at 80% RH (%): 25° C.; for solid form change after DVS: 0-90% RH; for hygroscopicity: 0-90% RH adsorption curve, at 80% RH; for Whether the crystal form is changed: after DVS test at 25° C. An excerpt:
The experimental method for characterizing an acid salt or a base salt of compound III by dynamic vapor sorption (DVS) was as follows: A small amount of a powder of a polymorph of compound III was taken and placed into a precise sample tray that matches the instrument. After the sample was loaded, the sample tray was sent into the instrument for analysis. In the present disclosure, the instrument model used in the dynamic vapor sorption analysis was Intrinsic PLUS; the experimental parameter was set as follows: a constant temperature of 25° C. was set; the mass percent change rate per unit time (dm/dt)=0.02%/min was used as a criterion for determining that a balance is achieved; the program humidity change cycle was set as follows: the initial relative humidity was 0%, and the endpoint relative humidity was 90%.
The DVS plot of the amorphous solid of the compound is shown in FIG. 67, and the DVS plot of crystal form D of the compound is shown in FIG. 68 The results are shown in the table below
The inventors assessed the stability risk of samples under varying humidity at 25° C. using the dynamic vapor sorption method and conducted the DVS test on the representative crystal form 2A of compound II to evaluate the hygroscopicity of the crystal form of the compound.

A short description of data set [3]: Equilibrium solubility study of polymorph in biological media (supernatant concentration; residual solid by XRPD). To be noted: for Whether the crystal form is changed: residual solid by XRPD after 24 h at 37±2° C.; for solubility thermodynamic at 24 h: 37 °C, thermodynamic from solid, suspension ~10 mg/mL, 37±2° C.
Data set [4] in a line: Solid state stability study of polymorph (purity by HPLC and crystal form change after 7 days storage). To be noted: for Purity (%) / Initial purity (%): HPLC; for Initial purity (%): before storage.
Data set [5] is described as follows: Equilibrium solubility study of polymorph in biological media (supernatant concentration; residual solid by XRPD). As to conditions: for crystal form change of the solid in FaSSGF: ~10 mg/mL suspension; for crystal form change of the solid in FaSSGF / crystal form change of the solid in other media: solid tested by XRPD; for Whether the crystal form is changed: residual solid by XRPD after 24 h at 37±2° C.; for stability in biological media compared with the amorphous solid: H2O; for crystal form change of the solid in other media: media other than FaSSGF (H2O, FaSSIF, FeSSIF). As to the method:
In the tests, the solids were suspended in corresponding buffers to formulate suspensions (˜10 mg/mL), and the suspensions were mixed at 37±2° C. After 24 h, samples of the suspensions were taken. The supernatant was filtered, and the concentration was determined. The solid was tested by XRPD.
Crystal form 2A of compound II was tested for its equilibrium solubility in water (H2O), fasted state simulated gastric fluid (FaSSGF), fasted state simulated intestinal fluid (FaSSIF), and fed state simulated intestinal fluid (FeSSIF). In the tests, the solids were suspended in corresponding buffers to formulate suspensions (˜10 mg/mL), and the suspensions were mixed at 37±2° C. After 24 h, samples of the suspensions were taken. The supernatant was filtered, and the concentration was determined. The solid was tested by XRPD.

The mark [6] stands for this setting: 25° C./60% RH, 7 days (long-term storage), compound I.
The mark [7] stands for this setting: 40° C./75% RH, 7 days (accelerated), compound I.
Setting [8] is: 60° C., 7 days (high-temperature, RH<30%), compound I.
[9] abbreviates: FaSSGF, FaSSIF, FeSSIF, 37±2° C., 24 h.
Setting [10] is: 25° C./60% RH, 7 days (long-term storage), compound II.
Where [11] appears, read: 60° C., 7 days (high-temperature, RH<30%), compound II.

In brackets after ≈: the same amount, converted by molar mass.

Consider `O=C(O)c1ccc2nc(CN3CCC(Oc4cccc(COc5ccc(Cl)cc5F)n4)CC3)n(C[C@@H]3CCO3)c2c1` [amorphous solid of compound I, (S)-2-((4-((6-((4-chloro-2-fluorophenoxy)methyl)pyridin-2-yl)oxy)piperidin-1-yl)methyl)-1-(oxetan-2-ylmethyl)-1/-benzo[d]imidazole-6-carboxylic acid], for which, in data set [1] (HPLC), the “purity change, long-term storage condition” value was “no significant purity changes”. In addition, the “purity change, accelerated condition” value in data set [1] (40° C./75% RH, HPLC) is “significant degradation”. Moreover, in data set [1] (HPLC), the “purity change, high-temperature condition” value was “significant degradation”. In data set [2], the “solid form change after DVS” value is “no solid form changes were observed”. Moreover, the hygroscopicity result was “slightly hygroscopic” in data set [2] and “Slightly hygroscopic” in data set [2] (DVS, compound I). Moreover, the “Sample weight change at 80% RH (%)” value in data set [2] (DVS, compound I) is 0.90%. The “Whether the crystal form is changed” value was “No” in data set [2] (compound I) and “No” in data set [3] (H2O, polymorph of compound I). Also, the “Purity (%)” value in data set [4] (setting [6]) was determined as 98.94%; in data set [4] (setting [7]) it was 95.86%; in data set [4] (setting [8]) it was 89.15%. Also, the Crystal form change entry in data set [4] (setting [6]), in data set [4] (setting [7]) and in data set [4] (setting [8]) was “No” each time. In addition, the “Initial purity (%)” value in data set [4] (compound I) worked out at 98.98%.

As a reminder, the thermodynamic solubility is solubility found after equilibrating the solid with the medium. Turning to `N#Cc1ccc(OCc2cccc(OC3CCN(Cc4nc5ccc(C(=O)O)cc5n4C[C@@H]4CCO4)CC3)n2)c(F)c1` [crystal form 2A of compound II, (S)-2-((4-((6-((4-cyano-2-fluorophenoxy)methyl)pyridin-2-yl)oxy)piperidin-1-yl)methyl)-1-(oxetan-2-ylmethyl)-1H-benzo[d]imidazole-6-carboxylic acid], in data set [5] (FaSSGF, 37±2° C., 24 h), the “crystal form change of the solid in FaSSGF” value was “converted into a hydrochloride salt”. Moreover, the “Whether the crystal form is changed” value in data set [5] (FaSSIF, polymorph of compound II) is given as “No”; in data set [5] (FeSSIF, polymorph of compound II), “No”; in data set [2] (compound II) it was “No”; in data set [3] (H2O, polymorph of compound II), “No”. The “stability in biological media compared with the amorphous solid” value in data set [5] (setting [9]) is “significantly superior”. The solubility (thermodynamic) at 24 h in data set [5] (fasted state simulated gastric fluid (FaSSGF), 37 °C, fassgf or other biorelevant, thermodynamic from solid, FaSSGF, suspension ~10 mg/mL, 37±2° C., 24 h, polymorph of compound II) is 180 µg/mL (≈ 315 µM); in data set [3] (fasted state simulated intestinal fluid (FaSSIF), FaSSIF, polymorph of compound II), 40 µg/mL (≈ 70 µM); in data set [3] (fed state simulated intestinal fluid (FeSSIF), FeSSIF, polymorph of compound II) it was 190 µg/mL (≈ 332 µM); in data set [3] (water, H2O, polymorph of compound II), 90 µg/mL (≈ 157 µM). The “crystal form change of the solid in other media” value in data set [5] (37±2° C., 24 h) is on record as “no crystal form changes”. Further, the “purity change, long-term storage condition” value in data set [1] (HPLC) is on record as “no significant purity changes”. Besides, the “Purity (%)” value in data set [1] (40° C./75% RH, 7 days (accelerated), HPLC, compound II) came out at 97.38%; in data set [4] (setting [10]), 97.65%; in data set [4] (setting [11]) it was 97.63%. Besides, the Crystal form change result in data set [1] (40° C./75% RH, 7 days (accelerated), compound II) was “No”; in data set [4] (setting [10]), “No”; in data set [4] (setting [11]), “No”. In addition, in data set [1] (40° C./75% RH, HPLC), the “purity change, accelerated condition” value is listed as “no significant purity changes”. Also, the “purity change, high-temperature condition” value in data set [1] (HPLC) is recorded as “no significant purity changes”. Also, in data set [1], the “crystal form change after storage” value is “no significant purity changes or significant crystal form changes”. Besides, the “overall solid state stability” value in data set [1] was “good stability”. Moreover, the “solid form change after DVS” value in data set [2] was “no solid form changes were observed”. The hygroscopicity entry in data set [2] is on record as “slightly hygroscopic”; in data set [2] (DVS, compound II) it was “Slightly hygroscopic”. Further, in data set [2] (DVS, compound II), the “Sample weight change at 80% RH (%)” value was 0.71%. Moreover, the “Initial purity (%)” value in data set [4] (compound II) is listed as 97.71%.

With `O=C(O)c1ccc2nc(CN3CCC(Oc4cccc(COc5ccc(Cl)cc5F)n4)CC3)n(C[C@@H]3CCO3)c2c1` [crystal form D of compound I, (S)-2-((4-((6-((4-chloro-2-fluorophenoxy)methyl)pyridin-2-yl)oxy)piperidin-I-yl)methyl)-1-(oxetan-2-ylmethyl)-1H-benzo[d]imidazole-6-carboxylic acid], the “crystal form change of the solid in FaSSGF” value in data set [5] (FaSSGF, 37±2° C., 24 h) is reported as “converted into a hydrochloride salt”. Further, in data set [5] (FaSSIF, 37±2° C., 24 h, compared with amorphous solid), the “solubility in the FaSSIF system” value is on record as “significantly improved solubility”. For the same molecule, the “stability in biological media compared with the amorphous solid” value in data set [5] (setting [9]) was “significantly superior”. The “crystal form change of the solid in other media” value in data set [5] (37±2° C., 24 h) is on record as “no crystal form change was observed”. Besides, the “purity change, long-term storage condition” value in data set [1] (HPLC) is “no significant purity changes”. Further, the “purity change, accelerated condition” value in data set [1] (40° C./75% RH, HPLC) is listed as “slightly reduced purities”. Moreover, the “purity change, high-temperature condition” value in data set [1] (HPLC) was “slightly reduced purities”. Besides, in data set [1], the “crystal form change after storage” value is reported as “no significant crystal form changes”. The “overall solid state stability” value in data set [1] is listed as “significantly superior”. Further, the “solid form change after DVS” value in data set [2] is listed as “no solid form changes were observed”. The hygroscopicity entry is on record as “slightly hygroscopic” in data set [2] and “Slightly hygroscopic” in data set [2] (DVS, compound I). The “Sample weight change at 80% RH (%)” value in data set [2] (DVS, compound I) is on record as 1.08%. For the same molecule, the “Whether the crystal form is changed” value in data set [2] (compound I) is “No”; in data set [3] (FaSSIF, polymorph of compound I) it was “No”; in data set [3] (FeSSIF, polymorph of compound I), “No”; in data set [3] (H2O, polymorph of compound I), “No”. Besides, the results for the “Purity (%)” value in data set [4] (setting [6]), in data set [4] (setting [7]) and in data set [4] (setting [8]) were 99.10%, 98.98% and 98.61%, respectively. The Crystal form change result in data set [4] (setting [6]), in data set [4] (setting [7]) and in data set [4] (setting [8]) was “No” each time. Also, in data set [4] (compound I), the “Initial purity (%)” value came out at 99.15%.
